Values joined by “and” are separate entries in the source; they are usually repeats but may differ in a detail not shown here. Equal entries are not always repeated. Residues, ends and D or L forms follow the SMILES beside them. Groups on a side chain read outwards from the residue. *: point of attachment. DOTA = O=C(O)CN1CCN(CC(=O)O)CCN(CC(=O)*)CCN(CC(=O)O)CC1; Ahx = NCCCCCC(=O)O; For = O=C*
Key:
[1] = Stability in human plasma (radio-HPLC); format: in vitro ADME; details: human plasma, 37 °C
Experimental: The radiolabelled compound (50 µL) was added to male human AB plasma (500 µL, Sigma Aldrich, USA, male AB) and incubated at 37 °C. Samples of 100 µL were taken at selected time points. The plasma proteins were precipitated with acetonitrile (-20 °C) and the precipitate was centrifuged for 1 min at 1500 rpm. The supernatant was analyzed by analytical radio-HPLC.

FPR1 = biological target: T1, FPR1 (Homo sapiens, UniProt P21462); experiment: High-throughput calcium imaging (FLIPR), FPR1 transfected HEK293T cells; format: cell-based; details: for EC50: FPR1 transfected HEK293T cells, peak calcium response, read-out: EC50 Ca2+ mobilization; for Calicum signal (dF/F0): FPR1-HEK
T1 construct: expressed in transfected cells; host or cells: HEK293T (transient, jetPEI)
T1 sequence (P21462 1-350): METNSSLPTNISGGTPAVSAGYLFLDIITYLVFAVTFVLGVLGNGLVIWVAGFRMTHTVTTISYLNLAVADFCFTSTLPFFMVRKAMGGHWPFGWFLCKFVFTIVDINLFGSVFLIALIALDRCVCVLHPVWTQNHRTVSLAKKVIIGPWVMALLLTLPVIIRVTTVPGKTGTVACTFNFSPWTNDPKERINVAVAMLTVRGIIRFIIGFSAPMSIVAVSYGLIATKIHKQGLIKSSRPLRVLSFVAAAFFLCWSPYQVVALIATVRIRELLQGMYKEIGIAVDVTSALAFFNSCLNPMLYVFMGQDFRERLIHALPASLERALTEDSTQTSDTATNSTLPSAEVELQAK
Experimental: Cell transfection was performed approximately 24 h after seeding the cells, when they reached about 70% confluence. Transfection was carried out using jetPEI™ (Polyplus) according to the following protocol: 0.25 µg DNA was diluted in 10 µL NaCl (150 mM). 0.5 µL of jetPEI™ solution in 10 µL NaCl was mixed with the DNA solution and incubated at RT for 15–30 min. After incubation, 20 µL of the jetPEI™/DNA mixture was added dropwise to the cells, which were then placed in the cell culture incubator at 37 °C and 5% CO2. After 18 to 24 h of transfection, the medium was replaced, and 100 µL per well was added, then placed back in the incubator.
(§1) Automated high-throughput Ca^2+ measurements using a fluorescence imaging plate reader (FLIPR, Molecular Devices) were performed. Briefly, […] were seeded in 96-well plates (~ 50,000 cells/well) one day before the experiments and incubated at 37 °C. HEK293T cells were co-transfected with the receptor or mock and the G protein Gα16 for 48 h. On the day of the experiments, the medium was removed, and the cells were loaded with a loading solution consisting of 2 µM Calbryte dye in C1 buffer (Calbryte 520AM, AAT Bioquest 20651) 50 µL per well, for at least 2 h at RT in the dark. After 2 h of loading with the fluorescent dye, the solution was removed, the plate was washed three times using an ELX50 washer (BioTek), and the intracellular release of calcium was measured using FLIPR. A Ca^2+ response was defined as an increase in the excitation ratio (340 nm/380 nm) that was at least four times higher than the mean baseline noise after bath application.
(§2) The results are expressed as the means ± standard deviations of the number of the indicated determinations. Calcium measurement experiments were routinely performed as triplicates and averaged over at least three independent transfections. Response amplitudes (F/F0) were calculated by dividing maximal fluorescence change after ligand application by baseline fluorescence. Maximal amplitudes were set to 100%, and curves were calculated with Graph Pad Prism Version 10.1 (GraphPad Software, Boston, MA, USA). S.D. values were calculated as averages from independently obtained EC50 values using the STDEV. Data derived from experiments were analyzed by two-way ANOVA. P < 0.05 was accepted as significant.

U87-MG cells = experiment: Calcium imaging (FLIPR) in U87-MG cells; format: cell-based, human; details: for EC50: U87-MG cells, read-out: EC50 Ca2+ flux; for Calicum signal (dF/F0): U87 cells
Experimental: as §1, §2

[2] = Log Concentration (M) -6,5, single replicate values, listed as f-MVPIK(Ahx-DOTA-Ga)I
[3] = Log Concentration (M) -6, single replicate values, listed as f-MVPIK(Ahx-DOTA-Ga)I
[4] = Log Concentration (M) -7,5, single replicate values, listed as f-MVPIK(Ahx-DOTA-Ga)I
[5] = Log Concentration (M) -7, single replicate values, listed as f-MVPIK(Ahx-DOTA-Ga)I
[6] = Log Concentration (M) -8,5, single replicate values, listed as f-MVPIK(Ahx-DOTA-Ga)I
[7] = Log Concentration (M) -8, single replicate values, listed as f-MVPIK(Ahx-DOTA-Ga)I
[8] = Log Concentration (M) -9, single replicate values, listed as f-MVPIK(Ahx-DOTA-Ga)I
[9] = Log Concentration (M) -6,5, single replicate values, listed as f-MVPIK(Ahx-DOTA-Lu)I
[10] = Log Concentration (M) -6, single replicate values, listed as f-MVPIK(Ahx-DOTA-Lu)I
[11] = Log Concentration (M) -7,5, single replicate values, listed as f-MVPIK(Ahx-DOTA-Lu)I
[12] = Log Concentration (M) -7, single replicate values, listed as f-MVPIK(Ahx-DOTA-Lu)I
[13] = Log Concentration (M) -8,5, single replicate values, listed as f-MVPIK(Ahx-DOTA-Lu)I
[14] = Log Concentration (M) -8, single replicate values, listed as f-MVPIK(Ahx-DOTA-Lu)I
[15] = Log Concentration (M) -9, single replicate values, listed as f-MVPIK(Ahx-DOTA-Lu)I

Compound: CC[C@H](C)[C@H](NC(=O)[C@H](CCCCNC(=O)CCCCCNC(=O)CN1CCN(CC(=O)O)CCN(CC(=O)O)CCN(CC(=O)O)CC1)NC(=O)[C@@H](NC(=O)[C@@H]1CCCN1C(=O)[C@@H](NC(=O)[C@H](CCSC)NC=O)C(C)C)[C@@H](C)CC)C(=O)O [[^68Ga]Ga-f-MVPIK(Ahx-DOTA)I, metal not drawn] (For-MVPIK([Ahx-DOTA])I-OH)
- time stable in human plasma [1]: at least 4 h

Compound: CC[C@H](C)[C@H](NC(=O)[C@H](CCCCNC(=O)CCCCCNC(=O)CN1CCN(CC(=O)O)CCN(CC(=O)O)CCN(CC(=O)O)CC1)NC(=O)[C@@H](NC(=O)[C@@H]1CCCN1C(=O)[C@@H](NC(=O)[C@H](CCSC)NC=O)C(C)C)[C@@H](C)CC)C(=O)O [f-MVPIK(Ahx-DOTA)I] (For-MVPIK([Ahx-DOTA])I-OH)
- EC50 (FPR1): 23 ± 2 nM
- EC50 (U87-MG cells): 5.6 ± 0.9 nM

Compound: CC[C@H](C)[C@H](NC(=O)[C@H](CCCCNC(=O)CCCCCNC(=O)CN1CCN(CC(=O)O)CCN(CC(=O)O)CCN(CC(=O)O)CC1)NC(=O)[C@@H](NC(=O)[C@@H]1CCCN1C(=O)[C@@H](NC(=O)[C@H](CCSC)NC=O)C(C)C)[C@@H](C)CC)C(=O)O [^natGa-f-MVPIK(Ahx-DOTA)I, metal not drawn] (For-MVPIK([Ahx-DOTA])I-OH)
- Calicum signal (dF/F0) (FPR1; [2]): 0,85 and 0,8 and 0,68
- Calicum signal (dF/F0) (FPR1; [3]): 0,85 and 0,89 and 0,8
- Calicum signal (dF/F0) (FPR1; [4]): 0,66 and 0,52 and 0,6
- Calicum signal (dF/F0) (FPR1; [5]): 0,74 and 0,87 and 0,65
- Calicum signal (dF/F0) (FPR1; [6]): 0,12 and 0,27 and 0,23
- Calicum signal (dF/F0) (FPR1; [7]): 0,28 and 0,27 and 0,3
- Calicum signal (dF/F0) (FPR1; [8]): 0,14 and 0,13 and 0,12
- EC50 (FPR1): 20 ± 1 nM
- EC50 (U87-MG cells): 29 ± 2.1 nM
- Calicum signal (dF/F0) (U87-MG cells; [2]): 1,2 and 1,8 and 0,91 and 1,18 and 1,37
- Calicum signal (dF/F0) (U87-MG cells; [3]): 1,22 and 1,2 (2×) and 0,96 and 1,41
- Calicum signal (dF/F0) (U87-MG cells; [4]): 0,77 and 0,6 (2×) and 0,61 and 0,7
- Calicum signal (dF/F0) (U87-MG cells; [5]): 0,98 and 0,86 and 0,8 and 1,02 and 0,95
- Calicum signal (dF/F0) (U87-MG cells; [6]): 0,4 and 0,38 and 0,33 and 0,46 and 0,35
- Calicum signal (dF/F0) (U87-MG cells; [7]): 0,45 and 0,46 (2×) and 0,65 and 0,58
- Calicum signal (dF/F0) (U87-MG cells; Log Concentration (M) -9,5, single replicate values, listed as f-MVPIK(Ahx-DOTA-Ga)I): 0,04 and 0,02 (3×) and 0,01
- Calicum signal (dF/F0) (U87-MG cells; [8]): 0,11 (2×) and 0,17 and 0,14 and 0,13

Compound: f-MLFKYS
- sensitivity to FPR1 compared with FPR2 (calcium) (FPR1; FPR1 vs FPR2): very similar sensitivity to FPR1 and FPR2

Compound: CC[C@H](C)[C@H](NC(=O)[C@H](CCCCNC(=O)CCCCCNC(=O)CN1CCN(CC(=O)O)CCN(CC(=O)O)CCN(CC(=O)O)CC1)NC(=O)[C@@H](NC(=O)[C@@H]1CCCN1C(=O)[C@@H](NC(=O)[C@H](CCSC)NC=O)C(C)C)[C@@H](C)CC)C(=O)O [^natLu-f-MVPIK(Ahx-DOTA)I, metal not drawn] (For-MVPIK([Ahx-DOTA])I-OH)
- Calicum signal (dF/F0) (FPR1; [9]): 0,91 and 0,74 and 0,82
- Calicum signal (dF/F0) (FPR1; [10]): 0,93 and 0,87 and 0,9
- Calicum signal (dF/F0) (FPR1; [11]): 0,7 and 0,5 and 0,6
- Calicum signal (dF/F0) (FPR1; [12]): 0,89 and 0,6 and 0,71
- Calicum signal (dF/F0) (FPR1; [13]): 0,31 and 0,28 and 0,34
- Calicum signal (dF/F0) (FPR1; [14]): 0,58 and 0,41 and 0,43
- Calicum signal (dF/F0) (FPR1; [15]): 0,13 and 0,23 and 0,2
- EC50 (FPR1): 12 ± 1 nM
- EC50 (U87-MG cells): 10 ± 0.9 nM
- Calicum signal (dF/F0) (U87-MG cells; [9]): 1,2 and 1,34 and 1 and 1,14 and 0,83
- Calicum signal (dF/F0) (U87-MG cells; [10]): 1,39 and 1,4 and 1,3 and 1,55 and 1,9
- Calicum signal (dF/F0) (U87-MG cells; [11]): 0,86 and 0,93 and 0,8 and 0,82 and 0,85
- Calicum signal (dF/F0) (U87-MG cells; [12]): 0,98 (2×) and 0,94 and 1,8 and 0,96
- Calicum signal (dF/F0) (U87-MG cells; [13]): 0,62 (3×) and 0,55 and 0,58
- Calicum signal (dF/F0) (U87-MG cells; [14]): 0,71 and 0,66 and 0,58 and 0,5 and 0,63
- Calicum signal (dF/F0) (U87-MG cells; Log Concentration (M) -9,5, single replicate values, listed as f-MVPIK(Ahx-DOTA-Lu)I): 0,06 (2×) and 0,07 and 0,09 and 0,01
- Calicum signal (dF/F0) (U87-MG cells; [15]): 0,12 (2×) and 0,21 and 0,14 and 0,18
